Measured values: PMC11808136, “Screening and identification of host signaling pathways for alleviating influenza-induced production of pro-inflammatory cytokines, IP-10, IL-8, and MCP-1, using a U937 cell-based influenza model” (Frontiers in Microbiology, 2025)
Read-outs that look alike come from different tables or passages of the source.

What was measured:
[1] = test system: IL-8 production in influenza virus-infected U937 cells (H1N1); experiment: cells; format: cell-based, Human; conditions: for EC50: read-out: EC50 IL-8
[2] = test system: IP-10 production in influenza virus-infected U937 cells (H1N1); experiment: cells; format: cell-based
[3] = test system: MCP-1 production in influenza virus-infected U937 cells (H1N1); experiment: cells; format: cell-based
[4] = test system: IL-8 production in influenza virus-infected U937 cells (H3N2); experiment: cells; format: cell-based, Human
[5] = test system: IP-10 production in influenza virus-infected U937 cells (H3N2); experiment: cells; format: cell-based, Human
[6] = test system: MCP-1 production in influenza virus-infected U937 cells (H3N2); experiment: cells; format: cell-based, Human
[7] = test system: IL-8 production in influenza virus-infected U937 cells (H7N8); experiment: cells; format: cell-based, Human
[8] = test system: IP-10 production in influenza virus-infected U937 cells (H7N8); experiment: cells; format: cell-based, Human
[9] = test system: MCP-1 production in influenza virus-infected U937 cells (H7N8); experiment: cells; format: cell-based, Human
[10] = test system: phosphorylation of p38 (p-p38); experiment: Western blot of phosphorylated p38 in influenza-infected U937 cells; format: cell-based, Human
Method: (§1) Figure 6 TKIs repress cytokine production by suppressing the p38 pathway. […] Cells were lysed 24 h post-infection, and the levels of phosphorylated p38 and ERK (p-p38 and p-ERK) and total p38 and ERK were assessed by western blot. A quantification of phosphorylated p38 levels for each drug treatment was included in the right panel of each figure.
(§2) Cells were homogenized in RIPA lysis buffer containing a 1% protease inhibitor cocktail (Roche) to extract total protein. Equal amounts of protein homogenates were separated by SDS-PAGE (Bio-Rad) and transferred onto polyvinylidene difluoride membranes (pore size […]; Bio-Rad). The membranes were then blotted with monoclonal antibodies against GAPDH (1:1000, ZSGB-BIO), p38, phosphor-p38, ERK, phospho-ERK, STAT1, phosphor-STAT1 (1:1000; Cell Signaling Technology), STAT3, and phosphor-STAT3 (1:1000; Cell Signaling Technology), respectively. Protein levels were detected with horseradish peroxidase-tagged secondary antibodies and enhanced chemiluminescence western blot reagents (Advansta), followed by visualization using an enhanced chemiluminescence system (AlphaEase FluorChem System, Alpha Innotech Corp.). Bands were quantified using ImageJ (Ver. 1.46; NIH, Bethesda, MD).

[11] = test system: STAT1 phosphorylation (p-STAT1); format: cell-based, Human
in vitro = conditions: human
[12] = test system: influenza virus infection; design: method as in Florence et al., 2018; Chen et al., 2019; conditions: without compromising viral titers; ref Florence et al., 2018; Chen et al., 2019; cited from earlier work
[13] = test system: ERK phosphorylation (p-ERK); experiment: Western blot of phosphorylated ERK in influenza-infected U937 cells; format: cell-based, Human
Method: Figure 5 Raf/MEK/ERK and p38 signal pathways are involved in the regulation of cytokines in U937 cells. (A–C) Determination of inhibition rates on IL-8, IP-10, and MCP-1 by each compound in the MAPK group and the distribution of targets between subgroups. U937 cells were infected with influenza A/PuertoRico/8/1934 virus (MOI = 0.1) in the presence of 10 μM of each inhibitor and then incubated at 37°C for 48 h. The distribution of the targets of all the inhibitors in the MAPK group was then analyzed and categorized into subgroups. […] The supernatants were harvested 48 h post-infection, and the levels of IL-8, MCP-1, and IP-10 were measured by AlphaLISA. (E) The cells were treated as in (C) except being lysed 24 h post-infection, and the levels of phosphorylated STAT1, p38, ERK (p-STAT1, p-p38, p-ERK), total STAT1, p38, ERK, and viral protein HA were assessed by western blot. (F) A quantitative analysis of the relative levels of the phosphorylated STAT1, p38, ERK (p-STAT1, p-p38, p-ERK) in (E). The data are representative of at least three independent experiments. n.s. no significance; *p < 0.05; **p < 0.01; ***p < 0.001.
as §1
as §2, with “The membranes were then blotted with monoclonal antibodies against GAPDH (1:1000, ZSGB-BIO), p38, phosphor-p38, ERK, phospho-ERK, STAT1, phosphor-STAT1 (1:1000; Cell Signaling Technology), STAT3, and phosphor-STAT3 (1:1000; Cell Signaling Technology), respectively.” left out

JAK2 = target: T1, JAK2 (Homo sapiens, UniProt O60674); experiment: Cell-free kinase activity assay, JAK2; format: biochemical; conditions: cell-free kinase assay
T1 construct: purchased KinaseProfiler (Eurofin, Brussels, Belgium)
T1 sequence (O60674 whole entry): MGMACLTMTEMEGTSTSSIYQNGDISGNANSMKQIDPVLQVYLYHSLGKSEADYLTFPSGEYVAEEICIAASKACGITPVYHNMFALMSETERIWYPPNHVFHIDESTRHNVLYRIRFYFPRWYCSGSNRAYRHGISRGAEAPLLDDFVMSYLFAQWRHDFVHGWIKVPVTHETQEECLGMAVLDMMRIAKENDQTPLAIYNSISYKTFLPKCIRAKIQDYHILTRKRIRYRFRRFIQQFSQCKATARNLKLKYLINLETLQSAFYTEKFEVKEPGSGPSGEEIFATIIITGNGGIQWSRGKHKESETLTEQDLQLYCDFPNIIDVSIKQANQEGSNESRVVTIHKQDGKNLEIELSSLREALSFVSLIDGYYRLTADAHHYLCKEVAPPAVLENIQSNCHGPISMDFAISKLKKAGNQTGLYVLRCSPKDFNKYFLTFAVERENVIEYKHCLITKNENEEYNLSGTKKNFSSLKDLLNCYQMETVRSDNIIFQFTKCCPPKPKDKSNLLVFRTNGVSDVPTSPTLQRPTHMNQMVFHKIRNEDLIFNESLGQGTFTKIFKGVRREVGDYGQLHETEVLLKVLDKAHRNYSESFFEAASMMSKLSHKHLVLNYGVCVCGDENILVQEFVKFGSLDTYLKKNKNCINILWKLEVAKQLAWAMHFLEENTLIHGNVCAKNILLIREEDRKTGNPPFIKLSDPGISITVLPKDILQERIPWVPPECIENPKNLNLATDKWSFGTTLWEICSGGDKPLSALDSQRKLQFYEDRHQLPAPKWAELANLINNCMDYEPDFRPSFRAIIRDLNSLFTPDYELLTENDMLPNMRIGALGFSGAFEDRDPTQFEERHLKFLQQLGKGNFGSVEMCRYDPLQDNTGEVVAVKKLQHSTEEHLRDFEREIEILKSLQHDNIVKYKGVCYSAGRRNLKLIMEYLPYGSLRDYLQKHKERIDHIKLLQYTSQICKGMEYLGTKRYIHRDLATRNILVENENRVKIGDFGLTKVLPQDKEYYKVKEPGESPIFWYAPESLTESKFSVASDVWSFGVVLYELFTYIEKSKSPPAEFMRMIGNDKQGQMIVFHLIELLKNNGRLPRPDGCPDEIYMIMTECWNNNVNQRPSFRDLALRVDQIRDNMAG

p38 = p38 (Homo sapiens, UniProt Q16539); experiment: Cell-free kinase activity assay, p38; format: biochemical
p38, sequence (Q16539 whole entry): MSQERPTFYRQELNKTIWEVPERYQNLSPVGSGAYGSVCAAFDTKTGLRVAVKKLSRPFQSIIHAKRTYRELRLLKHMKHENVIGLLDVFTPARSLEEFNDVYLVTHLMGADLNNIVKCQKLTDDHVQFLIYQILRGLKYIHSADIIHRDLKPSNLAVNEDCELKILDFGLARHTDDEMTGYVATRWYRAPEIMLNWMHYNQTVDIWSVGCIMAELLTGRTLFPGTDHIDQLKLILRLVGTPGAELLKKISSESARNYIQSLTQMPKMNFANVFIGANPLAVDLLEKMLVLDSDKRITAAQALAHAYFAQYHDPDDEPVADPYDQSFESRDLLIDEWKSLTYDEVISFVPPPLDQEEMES

JAK1 = JAK1 (Homo sapiens, UniProt P23458); experiment: Cell-free kinase activity assay, JAK1
JAK1, sequence (P23458 whole entry): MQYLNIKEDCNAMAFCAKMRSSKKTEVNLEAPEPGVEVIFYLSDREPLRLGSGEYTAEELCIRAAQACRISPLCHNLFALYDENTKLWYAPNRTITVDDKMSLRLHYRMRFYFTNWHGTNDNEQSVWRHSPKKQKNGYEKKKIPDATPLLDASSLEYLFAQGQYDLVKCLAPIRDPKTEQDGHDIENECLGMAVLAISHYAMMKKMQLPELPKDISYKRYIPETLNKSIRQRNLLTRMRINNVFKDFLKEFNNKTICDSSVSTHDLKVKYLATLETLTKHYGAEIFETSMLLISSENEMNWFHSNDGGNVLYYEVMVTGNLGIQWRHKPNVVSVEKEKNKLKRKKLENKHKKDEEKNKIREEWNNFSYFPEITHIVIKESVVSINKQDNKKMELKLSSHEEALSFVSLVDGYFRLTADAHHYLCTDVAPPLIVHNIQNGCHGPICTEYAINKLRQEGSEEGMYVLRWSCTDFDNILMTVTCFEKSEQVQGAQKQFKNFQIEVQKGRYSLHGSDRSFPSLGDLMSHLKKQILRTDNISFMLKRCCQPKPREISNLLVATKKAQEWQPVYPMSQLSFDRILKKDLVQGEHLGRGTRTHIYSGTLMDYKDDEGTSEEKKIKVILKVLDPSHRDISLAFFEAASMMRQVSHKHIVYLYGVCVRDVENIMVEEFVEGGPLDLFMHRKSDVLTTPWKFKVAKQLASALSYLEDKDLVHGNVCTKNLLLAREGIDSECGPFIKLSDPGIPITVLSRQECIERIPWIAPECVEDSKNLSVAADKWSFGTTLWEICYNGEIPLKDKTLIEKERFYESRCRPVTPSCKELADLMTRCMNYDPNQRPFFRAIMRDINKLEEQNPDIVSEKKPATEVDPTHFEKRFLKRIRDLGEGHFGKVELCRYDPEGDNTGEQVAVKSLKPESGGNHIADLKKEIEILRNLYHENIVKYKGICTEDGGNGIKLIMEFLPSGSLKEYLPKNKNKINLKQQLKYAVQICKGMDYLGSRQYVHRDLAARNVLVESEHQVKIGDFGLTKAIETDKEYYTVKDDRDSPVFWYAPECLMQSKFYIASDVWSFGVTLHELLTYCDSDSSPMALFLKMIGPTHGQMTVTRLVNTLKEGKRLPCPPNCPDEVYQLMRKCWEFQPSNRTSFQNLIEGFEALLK

[14] = Homo sapiens, U-937, secondary screen, Supplemental Table 1
[15] = Homo sapiens, U-937, read-out: EC50 IL-8
[16] = Homo sapiens, U-937, read-out: EC50 IP-10
[17] = Homo sapiens, U-937, read-out: EC50 MCP-1
[18] = Homo sapiens, U-937, read-out: IC50 p-p38
[19] = U937 cells, Table 1 section H1N1
[20] = CC50, secondary screen, Supplemental Table 1

Work on `Cc1nc(Nc2ncc(C(=O)Nc3c(C)cccc3Cl)s2)cc(N2CCN(CCO)CC2)n1` [Dasatinib] yielded an IC50 ([1]; Homo sapiens, U-937) of 1900 nM, an EC50 [1, 14] of 2060 nM and an EC50 ([1]; Homo sapiens, U-937) of 1890 nM. For the same compound, the EC50 ([2]; Homo sapiens, U-937, U937 cells infected with H1N1; read-out: EC50 IP-10) was 1160 nM, the EC50 ([2]; Homo sapiens, U-937, secondary screen, Supplemental Table 1; read-out: EC50 IP-10) was 1300 nM and the EC50 ([3]; Homo sapiens, U-937, U937 cells infected with H1N1, read-out: EC50 MCP-1) was 190 nM. It also gave an EC50 ([3]; Homo sapiens, U-937, secondary screen, Supplemental Table 1, read-out: EC50 MCP-1) of 140 nM, an IC50 ([3]; Homo sapiens, U-937, production of MCP-1 in U937 cells infected with influenza virus, Table 4, read-out: IC50 MCP-1) of 190 nM and an EC50 ([4]; Homo sapiens, U-937) of 730 nM. For the same compound, the EC50 ([5]; Homo sapiens, U-937) was 17 nM, the EC50 ([6]; Homo sapiens, U-937) was 18 nM and the EC50 [7, 15] was 135 nM. The EC50 [8, 16] was 14 nM, the EC50 [9, 17] was 44 nM and the IC50 [10, 18] was 1000 nM. For the same compound, the STAT1 phosphorylation levels [11] was “significantly reduced”, the CC50 (U937 cells; [19]) was > 100000 nM and the maximum non-toxic concentration (U937 cells; human) was 1 µM. The CC50 (in vitro) was > 100000 nM and the CC50 at 48 h (in vitro) was > 100000 nM.
For `C=CC(=O)N1CCC[C@@H](n2nc(-c3ccc(Oc4ccccc4)cc3)c3c(N)ncnc32)C1` [Ibrutinib (PCI-32765), Ibrutinib], the EC50 [1, 14] is given as 1220 nM, the “protection of mice from lethal influenza infection” value [12] is given as “protecting mice from lethal influenza infection” and the CC50 (in vitro; [20]) is given as > 100000 nM.
For `Cc1ccc(Nc2ncc3c(n2)N(C)C(=O)N(c2cc(NC(=O)c4cccc(C(F)(F)F)c4)ccc2C)C3)cn1` [GNF-7], the IC50 [1] was < 20 nM, the EC50 [1] was 19 nM and the EC50 ([1]; secondary screen, Supplemental Table 1) was < 5 nM. It also gave an EC50 ([2]; U937 cells infected with H1N1; read-out: EC50 IP-10) of 71 nM, an EC50 ([2]; secondary screen, Supplemental Table 1; read-out: EC50 IP-10) of 20 nM and an EC50 ([3]; U937 cells infected with H1N1, read-out: EC50 MCP-1) of 18 nM. The IC50 ([3]; production of MCP-1 in U937 cells infected with influenza virus, Table 4, read-out: IC50 MCP-1) was < 20 nM, the EC50 ([3]; secondary screen, Supplemental Table 1, read-out: EC50 MCP-1) was 10 nM and the EC50 [4] was 27 nM. The EC50 [5] was 1 nM, the EC50 [6] was 14 nM and the EC50 ([7]; read-out: EC50 IL-8) was 14 nM. It also gave an EC50 ([8]; read-out: EC50 IP-10) of 5 nM, an EC50 ([9]; read-out: EC50 MCP-1) of 109 nM and an IC50 ([10]; phosphorylation of p38, western blot, Table 4, read-out: IC50 p-p38) of 10 nM. For the same compound, the STAT1 phosphorylation levels [11] was “significantly reduced”, the “phosphorylation level of ERK” value [13] was “promoted” and the CC50 (U937 cells) was 13600 nM. For the same compound, the maximum non-toxic concentration (U937 cells) was 1 µM, the CC50 (U937 cells; [19]) was 13600 nM and the CC50 (U937 cells; U937 cells, Table 1 section H3N2) was 13600 nM.
For `Cc1cc(Nc2nc(N[C@@H](C)c3ncc(F)cn3)ncc2Cl)n[nH]1` [AZD1480], the IC50 ([1]; Homo sapiens, U-937) was 7500 nM, the EC50 [1, 14] was 110 nM and the EC50 ([1]; Homo sapiens, U-937) was 7690 nM. For the same compound, the EC50 [2, 16] was 100 nM, the IC50 ([2]; Homo sapiens, U-937, read-out: IC50 IP-10) was 7110 nM and the EC50 ([2]; Homo sapiens, U-937; read-out: EC50 IP-10) was 7690 nM. For the same compound, the EC50 ([3]; Homo sapiens, U-937, read-out: EC50 MCP-1, U937 cells infected with H1N1) was 6250 nM, the EC50 ([3]; Homo sapiens, U-937, read-out: EC50 MCP-1, secondary screen, Supplemental Table 1) was 30 nM and the IC50 ([3]; Homo sapiens, U-937, read-out: IC50 MCP-1) was 6300 nM. It also gave an EC50 ([4]; Homo sapiens, U-937) of 7140 nM, an EC50 ([5]; Homo sapiens, U-937) of 17 nM and an EC50 ([6]; Homo sapiens, U-937) of 478 nM. The EC50 [7, 15] was 215 nM, the EC50 [8, 16] was 57 nM and the EC50 [9, 17] was 714 nM. For the same compound, the JAK2 activity (JAK2) was “inhibited”, the “p38 kinase activity in vitro” value (p38; cell-free) was “failed to inhibit” and the IC50 (p38; p38 kinases in vitro) was > 100000 nM. The “phosphorylation of p38” value ([10]; 24 h post-infection, western blot, cellular model) was “suppress”, the IC50 [10, 18] was 5300 nM and the STAT1 phosphorylation levels [11] was “significantly reduced”. The maximum non-toxic concentration (U937 cells; human) was 50 µM, the CC50 at 48 h (in vitro) was 100000 nM and the CC50 (in vitro; [20]) was 13500 nM. The IC50 (JAK1) was 430 nM and the JAK1 activity (JAK1; cell-free kinase assay) was “inhibited”.
